These results are taken from patent US20210330611A1, “THERAPY FOR NEUROLOGICAL DISEASES/DISORDERS” (priority 2020, published 2021).

Data set [1] relates to primary rat microglia.
Data set [2] relates to LPS-induced microglia activation. Put plainly: Image-based assay of LPS-induced microglia activation (HTS and dose response). It counts as cell-based, rat. As to conditions: for inhibition at 10 µM: read-out: LPS % inhibition.
The test system of data set [3] is fibrin-induced microglia activation. Briefly: Image-based assay of fibrin-induced microglia activation (HTS and dose response). It counts as cell-based, rat. As to conditions: for inhibition at 10 µM: read-out: Fibrin % inhibition.
The test system of data set [4] is fibrin- and LPS-induced microglia activation. Put plainly: cells. It counts as cell-based, rat.
For data set [5], the system named is primary rat microglia. This is another data set of the same source.
The mark [6] stands for this setting: Rattus norvegicus, Microglia, primary microglia HTS, LPS stimulation, compounds at 10 μM.
[7] abbreviates: Rattus norvegicus, Microglia, primary microglia HTS, fibrin stimulation, compounds at 10 μM.
Setting [8] is: classification by fibrin and LPS inhibition, HTS at 10 μM.
The mark [9] stands for this setting: primary microglia HTS, fibrin stimulation, compounds at 10 μM, 10 µM.

Counter-ions that a name gives are not always drawn. Like-named read-outs stand apart in the source and are kept apart here.
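For Fibrin % cell toxicity in this document: share of dead cells sized under 150 µm2 at 10 µM in fibrin-stimulated microglia HTS.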

For orientation: inhibition means the drop in the measured response relative to a control, in per cent. Take `CN(C)CC(c1ccc(O)cc1)C1(O)CCCCC1` (stereo not drawn) [Desvenlafaxine]: in the data set with primary rat microglia [1] (rat), the “Fibrin % cell toxicity” value was determined as 1%. Besides, the inhibition at 10 µM in data set [2] (setting [6]) was determined as 3%; in data set [3] (setting [7]), 13%. For the same compound, the “Quadrant (FIG. 5b)” value in data set [4] (setting [8]) is recorded as “Q4”. The “LPS % cell toxicity” value in the data set with primary rat microglia [5] (rat) is given as 1%.
Turning to `CC(=O)OCC(=O)[C@@]1(O)[C@H](C)C[C@H]2[C@@H]3CCC4=CC(=O)C=C[C@]4(C)[C@@]3(F)[C@@H](O)C[C@@]21C` [Dexamethasone acetate, reference compound], the “Fibrin % cell toxicity” value in the data set on primary rat microglia [1] (rat) was found to be 4%. Moreover, the inhibition at 10 µM is 105% in data set [2] (Rattus norvegicus, Microglia, 48 h) and 112% in data set [3] (Rattus norvegicus, Microglia). In addition, the IC50 in data set [2] (Rattus norvegicus, Microglia, read-out: LPS_IC50 (uM)) was found to be 0.002 µM; in data set [3] (Rattus norvegicus, Microglia, read-out: fib_IC50 (uM)), 0.002 µM. The “Quadrant (FIG. 5b)” value in data set [4] is “Q2”. Moreover, in the data set on primary rat microglia [5] (rat), the “LPS % cell toxicity” value is 7%.
Take `CN(C)CC[C@@H](c1ccc(Cl)cc1)c1ccccn1` [Dexchlorpheniramine]: the “Fibrin % cell toxicity” value in the data set on primary rat microglia [1] (rat) is recorded as 1%. The inhibition at 10 µM in data set [2] (setting [6]) is 11%; in data set [3] (setting [7]) it was -8%. Further, the “Quadrant (FIG. 5b)” value in data set [4] is on record as “Q4”. Further, the “LPS % cell toxicity” value with primary rat microglia [5] (rat) is reported as 0%.
Turning to `CC(C)Cc1ccc([C@H](C)C(=O)O)cc1` [Dexibuprofen], the “Fibrin % cell toxicity” value in the data set on primary rat microglia [1] (rat) is on record as 1%. Besides, the values for the inhibition at 10 µM in data set [2] (setting [6]) and in data set [3] (setting [7]) were 13% and -3%, respectively. The “Quadrant (FIG. 5b)” value in data set [4] (setting [8]) was “Q4”. For the same compound, in the data set on primary rat microglia [5] (rat), the “LPS % cell toxicity” value came to 0%.
For `CC(=O)Nc1c(I)c(NC(C)=O)c(I)c(C(=O)O)c1I` [Diatrizoate], the “Fibrin % cell toxicity” value in the data set with primary rat microglia [1] (rat) is 0%. The inhibition at 10 µM in data set [2] (Rattus norvegicus, Microglia) is 5%; in data set [3] (Rattus norvegicus, Microglia), 4%. Further, the “Quadrant (FIG. 5b)” value in data set [4] is “Q4”. Further, the “LPS % cell toxicity” value in the data set with primary rat microglia [5] (rat) is recorded as 0%.
On to `COc1ccc(Cc2cnc(N)nc2N)cc1OC` [Diaveridine], for which, in the data set with primary rat microglia [1] (rat), the “Fibrin % cell toxicity” value was 1%. Moreover, the inhibition at 10 µM in data set [2] (setting [6]) was 13%; in data set [3] (setting [7]) it was -8%. Also, the “Quadrant (FIG. 5b)” value in data set [4] (setting [8]) is on record as “Q4”. For the same compound, in the data set on primary rat microglia [5] (rat), the “LPS % cell toxicity” value is 1%.
In the case of `NC[C@@H]1CC[C@@H](N)[C@@H](O[C@H]2[C@H](O)[C@@H](O[C@H]3O[C@H](CO)[C@@H](O)[C@H](N)[C@H]3O)[C@H](N)C[C@@H]2N)O1` [Dibekacin], in the data set on primary rat microglia [1] (rat), the “Fibrin % cell toxicity” value came out at 1%. In addition, the inhibition at 10 µM in data set [2] (Rattus norvegicus, Microglia) worked out at 20%; in data set [3] (Rattus norvegicus, Microglia) it was 10%. The “Quadrant (FIG. 5b)” value in data set [4] is “Q4”. For the same compound, the “LPS % cell toxicity” value in the data set on primary rat microglia [5] (rat) is given as 1%.
Turning to `COP(=O)(OC)OC=C(Cl)Cl` [Dichlorvos], in the data set on primary rat microglia [1] (rat), the “Fibrin % cell toxicity” value is recorded as 1%. In addition, the figures for the inhibition at 10 µM in data set [2] (setting [6]) and in data set [3] (setting [7]) were 19% and -1%, respectively. Further, in data set [4] (setting [8]), the “Quadrant (FIG. 5b)” value is recorded as “Q4”. Also, the “LPS % cell toxicity” value in the data set with primary rat microglia [5] (rat) is reported as 1%.
Consider `O=c1oc2ccccc2c(O)c1Cc1c(O)c2ccccc2oc1=O` [Dicoumarol], for which, in the data set with primary rat microglia [1] (rat), the “Fibrin % cell toxicity” value worked out at 1%. For the same compound, the inhibition at 10 µM in data set [2] (setting [6]) is 18%; in data set [3] (setting [7]), -24%. The “Quadrant (FIG. 5b)” value in data set [4] (setting [8]) is recorded as “Q4”. In addition, the “LPS % cell toxicity” value in the data set with primary rat microglia [5] (rat) was determined as 0%.
The matching figures for `O=c1[nH]cnc2c1ncn2[C@H]1CC[C@@H](CO)O1` [Didanosine]: 1%, -2%, -8%, “Q4” and 0%.
As for `CC/C(=C(/CC)c1ccc(O)cc1)c1ccc(O)cc1` [Diethylstilbestrol], the “Fibrin % cell toxicity” value with primary rat microglia [1] (rat) is reported as 1%. Moreover, the inhibition at 10 µM is 16% in data set [2] (Rattus norvegicus, Microglia) and -26% in data set [3] (Rattus norvegicus, Microglia). Further, in data set [4], the “Quadrant (FIG. 5b)” value is “Q4”. The “LPS % cell toxicity” value in the data set on primary rat microglia [5] (rat) was determined as 0%.
For the compound `O=C(O)c1cc(-c2ccc(F)cc2F)ccc1O` [Diflunisal], the “Fibrin % cell toxicity” value with primary rat microglia [1] (rat) amounted to 0%. For the same compound, the inhibition at 10 µM is 15% in data set [2] (setting [6]) and -62% in data set [3] (setting [7]). The “Quadrant (FIG. 5b)” value in data set [4] (setting [8]) was “Q4”. Besides, the “LPS % cell toxicity” value in the data set with primary rat microglia [5] (rat) was 0%.
Take `COc1ccc([C@@H]2Sc3ccccc3N(CCN(C)C)C(=O)[C@@H]2OC(C)=O)cc1` [Diltiazem Hydrochloride]: the “Fibrin % cell toxicity” value in the data set on primary rat microglia [1] (rat) is 0%. Further, in data set [2] (primary microglia HTS, LPS stimulation, compounds at 10 μM, 10 µM), the LPS % inhibition came to 15%. Also, the Fibrin % inhibition in data set [3] (setting [9]) is −5%. The “Quadrant (FIG. 5b)” value in data set [4] (setting [8]) is reported as “Q4”. Moreover, the “LPS % cell toxicity” value in the data set with primary rat microglia [5] (rat) amounted to 0%.
`COc1ccc([C@@H]2Sc3ccccc3N(CCN(C)C)C(=O)[C@@H]2OC(C)=O)cc1` [Diltiazem]: in the data set on primary rat microglia [1] (rat), the “Fibrin % cell toxicity” value was found to be 1%. Moreover, the inhibition at 10 µM in data set [2] (setting [6]) was determined as 9%. Moreover, in data set [3] (setting [9]), the Fibrin % inhibition is recorded as 21%. Besides, the “Quadrant (FIG. 5b)” value in data set [4] (setting [8]) is reported as “Q4”. Moreover, the “LPS % cell toxicity” value in the data set on primary rat microglia [5] (rat) amounted to 0%.
For `OCC(S)CS` (stereo not drawn) [Dimercaptopropanol, Dimercaprol], in the data set with primary rat microglia [1], the “Fibrin % cell toxicity” value is given as 1%. For the same compound, in data set [2] (primary microglia HTS, LPS stimulation, compounds at 10 μM), the LPS % inhibition is recorded as 16%. In addition, the Fibrin % inhibition in data set [3] (primary microglia HTS, fibrin stimulation, compounds at 10 μM) worked out at 49%. The “Quadrant (FIG. 5b)” value in data set [4] (setting [8]) is given as “Q4”. Also, the “LPS % cell toxicity” value in the data set on primary rat microglia [5] is reported as 0%.
`Cc1ncc([N+](=O)[O-])n1C` [Dimetridazole]: the “Fibrin % cell toxicity” value in the data set with primary rat microglia [1] (rat) came out at 1%. Besides, the inhibition at 10 µM is 15% in data set [2] (setting [6]) and -16% in data set [3] (setting [7]). Moreover, the “Quadrant (FIG. 5b)” value in data set [4] (setting [8]) was “Q4”. Besides, the “LPS % cell toxicity” value in the data set on primary rat microglia [5] (rat) was found to be 1%.
Take `CCN(CC)C(=S)SSC(=S)N(CC)CC` [Disulfiram]: in the data set with primary rat microglia [1] (rat), the “Fibrin % cell toxicity” value is listed as 90%. The inhibition at 10 µM was 131% in data set [2] (Rattus norvegicus, Microglia, 48 h, primary microglia HTS, LPS stimulation, increased cell size (>800 μm^2) as marker of activation) and 114% in data set [3] (Rattus norvegicus, Microglia, primary microglia HTS, fibrin stimulation, increased cell size (>800 μm^2) as marker of activation). Also, the “Quadrant (FIG. 5b)” value in data set [4] (quadrant by fibrin and LPS inhibition in HTS of 1907 compounds) is listed as “Q2”. Besides, in the data set with primary rat microglia [5] (rat), the “LPS % cell toxicity” value is 75%.
As to `O=c1[nH]c2ccccc2n1CCCN1CCC(n2c(=O)[nH]c3cc(Cl)ccc32)CC1` [Domperidone], in the data set on primary rat microglia [1] (rat), the “Fibrin % cell toxicity” value stood at 1%. Also, the inhibition at 10 µM in data set [2] (Rattus norvegicus, Microglia) came to 15%; in data set [3] (Rattus norvegicus, Microglia), 20%. Further, in data set [4], the “Quadrant (FIG. 5b)” value is reported as “Q4”. Further, in the data set on primary rat microglia [5] (rat), the “LPS % cell toxicity” value was found to be 0%.
The like results for `NCCc1ccc(O)c(O)c1` [Dopamine] were, in that order, 1%, 9%, -17%, “Q4” and 0%.
Turning to `CCN[C@H]1C[C@H](C)S(=O)(=O)c2sc(S(N)(=O)=O)cc21` [Dorzolamide], the “Fibrin % cell toxicity” value with primary rat microglia [1] (rat) came out at 1%. The inhibition at 10 µM in data set [2] (Rattus norvegicus, Microglia) was 15%; in data set [3] (Rattus norvegicus, Microglia) it was -40%. In addition, in data set [4], the “Quadrant (FIG. 5b)” value is “Q4”. Further, in the data set on primary rat microglia [5] (rat), the “LPS % cell toxicity” value came out at 1%.
Take `CNCC[C@H](Oc1cccc2ccccc12)c1cccs1` [Duloxetine]: the “Fibrin % cell toxicity” value with primary rat microglia [1] (rat) was found to be 0%. Moreover, the inhibition at 10 µM in data set [2] (Rattus norvegicus, Microglia) was 24%; in data set [3] (Rattus norvegicus, Microglia) it was 22%. In data set [4], the “Quadrant (FIG. 5b)” value is listed as “Q4”. Also, the “LPS % cell toxicity” value in the data set with primary rat microglia [5] (rat) stood at 0%.
Take `C[C@]12C=CC(=O)N[C@@H]1CC[C@@H]1[C@@H]2CC[C@]2(C)[C@@H](C(=O)Nc3cc(C(F)(F)F)ccc3C(F)(F)F)CC[C@@H]12` [Dutasteride]: in the data set with primary rat microglia [1] (rat), the “Fibrin % cell toxicity” value came to 1%. For the same compound, the inhibition at 10 µM in data set [2] (Rattus norvegicus, Microglia) was 22%; in data set [3] (Rattus norvegicus, Microglia) it was 7%. For the same compound, in data set [4], the “Quadrant (FIG. 5b)” value is reported as “Q4”. Moreover, the “LPS % cell toxicity” value in the data set on primary rat microglia [5] (rat) was 0%.
Take `Clc1ccc(COC(Cn2ccnc2)c2ccc(Cl)cc2Cl)cc1` (stereo not drawn) [Econazole]: in the data set with primary rat microglia [1] (rat), the “Fibrin % cell toxicity” value came out at 0%. Further, the inhibition at 10 µM stood at 18% in data set [2] (Rattus norvegicus, Microglia) and 0% in data set [3] (Rattus norvegicus, Microglia). Besides, the “Quadrant (FIG. 5b)” value in data set [4] is given as “Q4”. For the same compound, the “LPS % cell toxicity” value in the data set with primary rat microglia [5] (rat) was 0%.
